According to PubChem BioAssay (NCI):
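Briefly, cells in 96-well plates were exposed to five compound concentrations for 48 h, and endpoints were estimated by linear interpolation. TGI marks complete inhibition of growth.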

How the values were obtained:
Test in all cases: growth of human tumour cells (NCI), 48 h
786-0 renal = test system: 786-0 renal
A549 NSCLC = test system: A549 NSCLC
ACHN renal = test system: ACHN renal
CCRF-CEM leukemia = test system: CCRF-CEM leukemia
COLO 205 colon = test system: COLO 205 colon
DLD-1 colon = test system: DLD-1 colon
DMS 114 small cell lung = test system: DMS 114 small cell lung
DMS 273 small cell lung = test system: DMS 273 small cell lung
EKVX NSCLC = test system: EKVX NSCLC
HCC-2998 colon = test system: HCC-2998 colon
HCT-116 colon = test system: HCT-116 colon
HCT-15 colon = test system: HCT-15 colon
HL-60(TB) leukemia = test system: HL-60(TB) leukemia
HOP-62 NSCLC = test system: HOP-62 NSCLC
HT29 colon = test system: HT29 colon
IGROV1 ovarian = test system: IGROV1 ovarian
K-562 leukemia = test system: K-562 leukemia
LOX IMVI melanoma = test system: LOX IMVI melanoma
LXFL 529 NSCLC = test system: LXFL 529 NSCLC
M14 melanoma = test system: M14 melanoma
M19-MEL melanoma = test system: M19-MEL melanoma
MOLT-4 leukemia = test system: MOLT-4 leukemia
NCI-H226 lung = test system: NCI-H226 lung
NCI-H23 lung = test system: NCI-H23 lung
NCI-H460 lung = test system: NCI-H460 lung
OVCAR-4 ovarian = test system: OVCAR-4 ovarian
OVCAR-5 ovarian = test system: OVCAR-5 ovarian
OVCAR-8 ovarian = test system: OVCAR-8 ovarian
RPMI-8226 leukemia = test system: RPMI-8226 leukemia
RXF 393 renal = test system: RXF 393 renal
SF-268 CNS = test system: SF-268 CNS
SF-539 CNS = test system: SF-539 CNS
SK-MEL-28 melanoma = test system: SK-MEL-28 melanoma
SK-MEL-5 melanoma = test system: SK-MEL-5 melanoma
SK-OV-3 ovarian = test system: SK-OV-3 ovarian
SN12C renal = test system: SN12C renal
SNB-19 CNS = test system: SNB-19 CNS
SNB-75 CNS = test system: SNB-75 CNS
SNB-78 CNS = test system: SNB-78 CNS
SR leukemia = test system: SR leukemia
SW-620 colon = test system: SW-620 colon
TK-10 renal = test system: TK-10 renal
U251 CNS = test system: U251 CNS
UACC-257 melanoma = test system: UACC-257 melanoma
UACC-62 melanoma = test system: UACC-62 melanoma
UO-31 renal = test system: UO-31 renal
XF 498 CNS = test system: XF 498 CNS
A498 renal = test system: A498 renal
CAKI-1 renal = test system: CAKI-1 renal
HOP-92 NSCLC = test system: HOP-92 NSCLC
KM12 colon = test system: KM12 colon
KM20L2 colon = test system: KM20L2 colon
MALME-3M melanoma = test system: MALME-3M melanoma
NCI-H522 lung = test system: NCI-H522 lung
OVCAR-3 ovarian = test system: OVCAR-3 ovarian
SF-295 CNS = test system: SF-295 CNS
SK-MEL-2 melanoma = test system: SK-MEL-2 melanoma

SMILES: CCN(CC)CCC(=O)NC1c2ccccc2Oc2c(C)cccc21 (stereo not given)
- TGI (786-0 renal): > 100 µM
- TGI (A549 NSCLC): > 100 µM
- TGI (ACHN renal): > 100 µM
- TGI (CCRF-CEM leukemia): > 100 µM
- TGI (COLO 205 colon): > 100 µM
- TGI (DLD-1 colon): > 100 µM
- TGI (DMS 114 small cell lung): > 100 µM
- TGI (DMS 273 small cell lung): > 100 µM
- TGI (EKVX NSCLC): > 100 µM
- TGI (HCC-2998 colon): > 100 µM
- TGI (HCT-116 colon): > 100 µM
- TGI (HCT-15 colon): > 100 µM
- TGI (HL-60(TB) leukemia): > 100 µM
- TGI (HOP-62 NSCLC): > 100 µM
- TGI (HT29 colon): > 100 µM
- TGI (IGROV1 ovarian): > 100 µM
- TGI (K-562 leukemia): > 100 µM
- TGI (LOX IMVI melanoma): > 100 µM
- TGI (LXFL 529 NSCLC): > 100 µM
- TGI (M14 melanoma): > 100 µM
- TGI (M19-MEL melanoma): > 100 µM
- TGI (MOLT-4 leukemia): > 100 µM
- TGI (NCI-H226 lung): > 100 µM
- TGI (NCI-H23 lung): > 100 µM
- TGI (NCI-H460 lung): > 100 µM
- TGI (OVCAR-4 ovarian): > 100 µM
- TGI (OVCAR-5 ovarian): > 100 µM
- TGI (OVCAR-8 ovarian): > 100 µM
- TGI (RPMI-8226 leukemia): > 100 µM
- TGI (RXF 393 renal): > 100 µM
- TGI (SF-268 CNS): > 100 µM
- TGI (SF-539 CNS): > 100 µM
- TGI (SK-MEL-28 melanoma): > 100 µM
- TGI (SK-MEL-5 melanoma): > 100 µM
- TGI (SK-OV-3 ovarian): > 100 µM
- TGI (SN12C renal): > 100 µM
- TGI (SNB-19 CNS): > 100 µM
- TGI (SNB-75 CNS): > 100 µM
- TGI (SNB-78 CNS): > 100 µM
- TGI (SR leukemia): > 100 µM
- TGI (SW-620 colon): > 100 µM
- TGI (TK-10 renal): > 100 µM
- TGI (U251 CNS): > 100 µM
- TGI (UACC-257 melanoma): > 100 µM
- TGI (UACC-62 melanoma): > 100 µM
- TGI (UO-31 renal): > 100 µM
- TGI (XF 498 CNS): > 100 µM

SMILES: N=c1oc2c(O)c(O)ccc2cc1C(N)=O
- TGI (786-0 renal): 25.3 µM
- TGI (A498 renal): > 100 µM
- TGI (A549 NSCLC): > 100 µM
- TGI (ACHN renal): > 100 µM
- TGI (CAKI-1 renal): > 100 µM
- TGI (CCRF-CEM leukemia): 47 µM
- TGI (COLO 205 colon): > 100 µM
- TGI (DLD-1 colon): > 100 µM
- TGI (DMS 114 small cell lung): > 100 µM
- TGI (DMS 273 small cell lung): > 100 µM
- TGI (EKVX NSCLC): > 100 µM
- TGI (HCC-2998 colon): > 100 µM
- TGI (HCT-116 colon): > 100 µM
- TGI (HCT-15 colon): > 100 µM
- TGI (HOP-62 NSCLC): > 100 µM
- TGI (HOP-92 NSCLC): > 100 µM
- TGI (HT29 colon): > 100 µM
- TGI (IGROV1 ovarian): > 100 µM
- TGI (K-562 leukemia): 36.4 µM
- TGI (KM12 colon): > 100 µM
- TGI (KM20L2 colon): > 100 µM
- TGI (LXFL 529 NSCLC): 93.1 µM
- TGI (M14 melanoma): > 100 µM
- TGI (M19-MEL melanoma): 44.8 µM
- TGI (MALME-3M melanoma): > 100 µM
- TGI (MOLT-4 leukemia): 75.2 µM
- TGI (NCI-H226 lung): > 100 µM
- TGI (NCI-H23 lung): > 100 µM
- TGI (NCI-H460 lung): > 100 µM
- TGI (NCI-H522 lung): > 100 µM
- TGI (OVCAR-3 ovarian): > 100 µM
- TGI (OVCAR-4 ovarian): 31.7 µM
- TGI (OVCAR-5 ovarian): > 100 µM
- TGI (OVCAR-8 ovarian): 50.9 µM
- TGI (RPMI-8226 leukemia): > 100 µM
- TGI (RXF 393 renal): > 100 µM
- TGI (SF-268 CNS): > 100 µM
- TGI (SF-295 CNS): 94.5 µM
- TGI (SF-539 CNS): > 100 µM
- TGI (SK-MEL-2 melanoma): > 100 µM
- TGI (SK-MEL-28 melanoma): > 100 µM
- TGI (SK-OV-3 ovarian): > 100 µM
- TGI (SN12C renal): > 100 µM
- TGI (SNB-19 CNS): > 100 µM
- TGI (SNB-75 CNS): 97.6 µM
- TGI (SNB-78 CNS): > 100 µM
- TGI (SW-620 colon): 83.4 µM
- TGI (TK-10 renal): > 100 µM
- TGI (U251 CNS): > 100 µM
- TGI (UACC-257 melanoma): > 100 µM
- TGI (UACC-62 melanoma): > 100 µM
- TGI (UO-31 renal): > 100 µM
- TGI (XF 498 CNS): 53 µM

SMILES: O=C(Nc1ccccc1-c1nn(CO)c(=S)n(CO)c1=O)C(F)(F)F
- TGI (786-0 renal): > 100 µM
- TGI (A549 NSCLC): > 100 µM
- TGI (ACHN renal): > 100 µM
- TGI (CAKI-1 renal): > 100 µM
- TGI (CCRF-CEM leukemia): > 100 µM
- TGI (COLO 205 colon): > 100 µM
- TGI (DLD-1 colon): > 100 µM
- TGI (DMS 114 small cell lung): > 100 µM
- TGI (DMS 273 small cell lung): > 100 µM
- TGI (EKVX NSCLC): > 100 µM
- TGI (HCC-2998 colon): > 100 µM
- TGI (HCT-116 colon): > 100 µM
- TGI (HOP-62 NSCLC): > 100 µM
- TGI (HOP-92 NSCLC): > 100 µM
- TGI (HT29 colon): > 100 µM
- TGI (IGROV1 ovarian): > 100 µM
- TGI (K-562 leukemia): > 100 µM
- TGI (KM12 colon): > 100 µM
- TGI (LOX IMVI melanoma): > 100 µM
- TGI (LXFL 529 NSCLC): > 100 µM
- TGI (M14 melanoma): > 100 µM
- TGI (MALME-3M melanoma): > 100 µM
- TGI (MOLT-4 leukemia): > 100 µM
- TGI (NCI-H226 lung): > 100 µM
- TGI (NCI-H23 lung): > 100 µM
- TGI (NCI-H460 lung): > 100 µM
- TGI (NCI-H522 lung): > 100 µM
- TGI (OVCAR-3 ovarian): > 100 µM
- TGI (OVCAR-4 ovarian): > 100 µM
- TGI (OVCAR-5 ovarian): > 100 µM
- TGI (OVCAR-8 ovarian): > 100 µM
- TGI (RXF 393 renal): > 100 µM
- TGI (SF-268 CNS): > 100 µM
- TGI (SF-295 CNS): > 100 µM
- TGI (SF-539 CNS): > 100 µM
- TGI (SK-MEL-2 melanoma): > 100 µM
- TGI (SK-MEL-28 melanoma): > 100 µM
- TGI (SK-MEL-5 melanoma): > 100 µM
- TGI (SK-OV-3 ovarian): > 100 µM
- TGI (SN12C renal): > 100 µM
- TGI (SNB-19 CNS): > 100 µM
- TGI (SNB-75 CNS): > 100 µM
- TGI (SNB-78 CNS): > 100 µM
- TGI (SR leukemia): > 100 µM
- TGI (SW-620 colon): > 100 µM
- TGI (TK-10 renal): > 100 µM
- TGI (U251 CNS): > 100 µM
- TGI (UACC-62 melanoma): > 100 µM
- TGI (UO-31 renal): > 100 µM
- TGI (XF 498 CNS): > 100 µM
